# Patent US20260038709A1 (priority 2020, published 2026)
# Like-named read-outs stand apart in the source and are kept apart here.
# What was measured:
# Vapor pressure = assay type: physicochemical; conditions: 20° C.
# Boiling point = assay type: physicochemical
# [1] = in vivo; cited from earlier work
# [2] = Explosion limits of CF3OCFCF2 / CO2 / O2 (triangular diagram)
# Text: In this case, the straight line AB may be a straight line connecting point A and point B, the straight line BC may be a straight line connecting point B and point C, the straight line CA may be a straight line connecting point C and point A, and in the point A, (x, y, z) may be (50, 0, 50), in the point B, (x, y, z) may be (5.1, 0, 94.9), and in the point C, (x, y, z) may be (8.2, 80, 11.8). Unlike the case above, when (x, y, z) is present in the triangle ABC (explosion triangle) composed of the points A, B, and C, there may be an explosion hazard due to flammability.
# In FIG. 7, the explosion limits indicate the explosion limit line, and is a line connecting the explosion limit points (filled square points). On the other hand, no ignition (hollow rectangle points) indicates a non-ignition point.
# In addition, point A in the triangular diagram of FIG. 7 represents upper flammability limit (UFL), and when point A is connected to point C, which is an end point on the explosion limit line, a straight line AC, which is an expected explosion limit (expected line), is formed. […] Meanwhile, the ICR line on the triangle diagram is tangent to the explosion triangle passing through 100% of O2, and the MXC value is 9.3% (C3F6O in CO2).
# [3] = Acute inhalation toxicity (LC50 4 h); assay type: in vivo; conditions: inhalation for 4 hours, pure gas
# [4] = Lower flammability limit (LFL) calculation, KS B ISO 10156: 2017 combustible gas standard; conditions: mixed gas of CF3OCFCF2 and CO2, by mixing ratio of CF3OCFCF2; calculation results
# Text: Meanwhile, insulating gases used in electric devices that insulate electricity or extinguish arc are not supposed to belong to the category of combustible gases.
# The calculation results of the lower flammability limit (LFL) according to the mixing ratio of the mixed gas of CF3OCFCF2 and CO2 are shown in the following table. In this case, the lower flammability limit is a concentration range in which flame propagation may take place when a combustible gas is mixed with air and ignited, expressed in volume concentration (vol %), and refers to the lowest value in this volume concentration.
# [5] = Reactivity test with electrodes during dielectric strength test; conditions: room temperature, 1 atm, insulation test chamber
# Text: In this case, the reactivity test was to determine a reaction with electrodes upon testing dielectric strength for each mixing ratio of the insulating gases in an enclosed space where no external gas was not allowed to enter (insulation test chamber), at R.T. (room temperature), and at a standard atmospheric pressure of 1 atm. In this case, materials of a sphere electrode are CuCr and Wcu, and materials of a plane electrode are CuCr and SUS.
# [6] = Acute inhalation toxicity (LC50 4 h) of mixed gas based on KS B ISO 10298: 2012; conditions: mixed gas of CF3OCFCF2 and CO2, mixing ratio mol %
# Procedure: The mixed gas of the present invention may have a GWP of 1 or less, 0.9 or less, or 0.85 or less. In addition, the mixed gas of the present invention may have a GWP of 0.29 to 1, 0.29 to 0.9, or 0.29 to 0.85. […] In this case, a method for calculating GWP was based on Regulation (EU) NO 517/2014, and LC50, which represents lethal concentration 50% upon inhalation for 4 hours, was based one KS B ISO 10298: 2012.
Compound,Vapor pressure (Vapor pressure),Boiling point (Boiling point),Acute inhalation toxicity (LC50 4 h) [1],"Ignition ([2]; C3F6O 8.6, CO2 82.5, O2 8.9 mol %)","Ignition ([2]; C3F6O 8.8, CO2 85.0, O2 6.2 mol %)",MXC value ([2]; C3F6O in CO2),"Upper flammability limit (UFL), point A, C3F6O ([2]; CO2 0, O2 50 mol %)","Explosion limit (LEL), C3F6O ([2]; CO2 0.0, O2 94.9 mol %)","Explosion limit, C3F6O ([2]; CO2 30.0, O2 64.3 mol %)","Explosion limit, C3F6O ([2]; CO2 50.0, O2 43.4 mol %)","Explosion limit, C3F6O ([2]; CO2 60.0, O2 33.0 mol %)","Explosion limit, C3F6O ([2]; CO2 70.0, O2 22.4 mol %)","Explosion limit, C3F6O ([2]; CO2 80.0, O2 11.8 mol %, point of tangency of ICR line)",Acute inhalation toxicity (LC50 4 h) [3],Lower flammability limit (LFL) [4],Reaction with electrodes [5],LC50 4 h [6]
"N#CC(F)(C(F)(F)F)C(F)(F)F [(CF3)2CFCN, heptafluoroisobutyronitrile]",36.7 psia,−4.7 °C,"10,000-15,000 ppmv",–,–,–,–,–,–,–,–,–,–,–,–,–,–
"FC(F)=C(F)OC(F)(F)F [CF3OCFCF2, trifluoromethyl trifluorovinyl ether]",70.3 psia,−29 °C,–,No ignition confirmed at 8.6% C3F6O,No ignition confirmed at 8.8% C3F6O,9.3%,50 mol %,5.1 mol %,5.7 mol %,6.6 mol %,7.0 mol %,7.6 mol %,8.2 mol %,"10,000-15,000 ppmv",7.5 vol %,reacted with electrodes at atmospheric pressure to form a carbon film,"15,000 ppmv"
FS(F)(F)(F)(F)F [SF6],334 psia,−63.7 °C,–,–,–,–,–,–,–,–,–,–,–,"100,000~ ppmv",–,–,–
